Experimental data taken from patent US20070167430A1, “Compounds useful in therapy” (priority 2004, published 2007).

Biological target: T1, human V1A receptor (Homo sapiens, UniProt P37288)
T1 construct: expressed in transfected cells
Assay: V1A filter binding assay ([3H]-AVP binding to CHO-hV1A membranes)
Conditions: screen 1.0, [3H]-AVP displacement
Experimental: 1.0 V1A Filter Binding Assay
Receptor binding assays were performed on cellular membranes prepared from CHO cells stably expressing the human V1A receptor, (CHO-hV1A). The CHO-hV1A cell line was kindly provided under a licensing agreement by Marc Thibonnier, Dept. of Medicine, Case Western Reserve University School of Medicine, Cleveland, Ohio. CHO-hV1A cells were routinely maintained at 37° C. in humidified atmosphere with 5% CO2 in DMEM/Hams F12 nutrient mix supplemented with 10% fetal bovine serum, 2 mM L-glutamine, 15 mM HEPES and 400 μg/ml G418. For bulk production of cell pellets, adherent CHO-hV1A cells were grown to confluency of 90-100% in 850 cm^2 roller bottles containing a medium of DMEM/Hams F12 Nutrient Mix supplemented with 10% fetal bovine serum, 2 mM L-glutamine and 15 mM HEPES. Confluent CHO-hV1A cells were washed with phosphate-buffered saline (PBS), harvested into ice cold PBS and centrifuged at 1,000 rpm. Cell pellets were stored at −80° C. until use. Cell pellets were thawed on ice and homogenised in membrane preparation buffer consisting of 50 mM Tris-HCl, pH 7.4, 5 mM MgCl2 and supplemented with a protease inhibitor cocktail, (Roche). The cell homogenate was centrifuged at 1000 rpm, 10 min, 4° C. and the supernatant was removed and stored on ice. The remaining pellet was homogenised and centrifuged as before. The supernatants were pooled and centrifuged at 25,000×g for 30 min at 4° C. The pellet was resuspended in freezing buffer consisting of 50 mM Tris-HCl, pH 7.4, 5 mM MgCl2 and 20% glycerol and stored in small aliquots at −80° C. until use. Protein concentration was determined using Bradford reagent and BSA as a standard.
Protein linearity followed by saturation binding studies were performed on each new batch of membrane. Membrane concentration was chosen that gave specific binding on the linear portion of the curve. Saturation binding studies were then performed using various concentrations of [^3H]-arginine vasopressin, [^3H]-AVP (0.05 nM-100 nM) and the Kd and Bmax determined.
Compounds were tested for their effects on [^3H]-AVP binding to CHO-hV1A membranes, (^3H-AVP; specific activity 65.5 Ci/mmol; NEN Life Sciences). Compounds were solubilised in dimethylsulfoxide (DMSO) and diluted to working concentration of 10% DMSO with assay buffer containing 50 mM Tris-HCL pH 7.4, 5 mM MgCl2 and 0.05% BSA. […] The binding reaction was initiated by the addition of 200 μl membrane and the plates were gently shaken for 60 min at room temperature. The reaction was terminated by rapid filtration using a Filtermate Cell Harvester (Packard Instruments) through a 96-well GF/B UniFilter Plate which had been presoaked in 0.5% polyethyleneimine to prevent peptide sticking. The filters were washed three times with 1 ml ice cold wash buffer containing 50 mM Tris-HCL pH 7.4 and 5 mM MgCl2. The plates were dried and 50 μl Microscint-0 (Packard instruments) was added to each well. The plates were sealed and counted on a TopCount Microplate Scintillation Counter (Packard Instruments). Non-specific binding (NSB) was determined using 1 μM unlabelled d(CH2)5Tyr(Me)AVP ([β-mercapto-β,β-cyclopentamethylenepropionyl,0-Me-Tyr^2,Arg^8]-vasopressin) (βMCPVP), (Sigma). The radioligand binding data was analysed using a four parameter logistic equation with the min forced to 0%. The slope was free fitted and fell between −0.75 and −1.25 for valid curves. Specific binding was calculated by subtracting the mean NSB cpm from the mean Total cpm. For test compounds the amount of ligand bound to the receptor was expressed as % bound=(sample cpm−mean NSB cpm)/specific binding cpm×100. The % bound was plotted against the concentration of test compound and a sigmoidal curve was fitted. The inhibitory dissociation constant (Ki) was calculated using the Cheng-Prusoff equation: Ki=IC50/(1+[L]/Kd) where [L] is the concentration of ligand present in the well and Kd is the dissociation constant of the radioligand obtained from Scatchard plot analysis. […]

T1 sequence (P37288 whole entry): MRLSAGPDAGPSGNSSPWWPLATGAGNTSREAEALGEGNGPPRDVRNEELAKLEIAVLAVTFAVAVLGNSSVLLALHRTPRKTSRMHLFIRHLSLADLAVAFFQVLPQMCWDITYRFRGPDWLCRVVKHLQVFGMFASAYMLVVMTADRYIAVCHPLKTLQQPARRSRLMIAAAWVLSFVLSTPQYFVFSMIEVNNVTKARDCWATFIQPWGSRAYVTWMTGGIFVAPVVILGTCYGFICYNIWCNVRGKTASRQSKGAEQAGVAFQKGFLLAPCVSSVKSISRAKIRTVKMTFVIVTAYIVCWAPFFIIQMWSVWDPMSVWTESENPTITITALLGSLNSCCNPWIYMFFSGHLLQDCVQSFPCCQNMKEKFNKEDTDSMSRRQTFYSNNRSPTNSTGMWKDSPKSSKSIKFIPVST

| Compound | Ki |
| --- | --- |
| CN1Cc2cc(Cl)ccc2-n2c(nnc2C2CCN(C(=O)c3c[nH]c4ccccc34)CC2)C1 [Example 1, [4-(8-Chloro-5-methyl-5,6-dihydro-4H-2,3,5,10b-tetraaza-benzo[e]azulen-1-yl)-piperidin-1-yl]-(1H-indol-3-yl)-methanone] | 73.8 nM |
| Cc1ccccc1CC(=O)N1CCC(c2nnc3n2-c2ccc(Cl)cc2CN(C)C3)CC1 [Example 2, 1-[4-(8-Chloro-5-methyl-5,6-dihydro-4H-2,3,5,10b-tetraaza-benzo[e]azulen-1-yl)-piperidin-1-yl]-2-o-tolyl-ethanone] | 35 nM |
| CN1Cc2cc(Cl)ccc2-n2c(nnc2C2CCN(C(=O)C3(C)CCCCC3)CC2)C1 [Example 9, [4-(8-Chloro-5-methyl-5,6-dihydro-4H-2,3,5,10b-tetraaza-benzo[e]azulen-1-yl)-piperidin-1-yl]-(1-methyl-cyclohexyl)-methanone] | 59.9 nM |
| CN1Cc2cc(Cl)ccc2-n2c(nnc2C2CCN(C(=O)CC3CC3)CC2)C1 [Example 18, 1-[4-(8-Chloro-5-methyl-5,6-dihydro-4H-2,3,5,10b-tetraaza-benzo[e]azulen-1-yl)-piperidin-1-yl]-2-cyclopropyl-ethanone] | 62.1 nM |
| CN1Cc2cc(Cl)ccc2-n2c(nnc2C2CCN(C(=O)c3cc4ccccc4[nH]3)CC2)C1 [Example 64, [4-(8-Chloro-5-methyl-5,6-dihydro-4H-2,3,5,10b-tetraaza-benzo[e]azulen-1-yl)-piperidin-1-yl]-(1H-indol-2-yl)-methanone] | 34.7 nM |
| CN1Cc2cc(Cl)ccc2-n2c(nnc2C2CCN(C(=O)c3ccc4cc[nH]c4c3)CC2)C1 [Example 67, [4-(8-Chloro-5-methyl-5,6-dihydro-4H-2,3,5,10b-tetraaza-benzo[e]azulen-1-yl)-piperidin-1-yl]-(1H-indol-6-yl)-methanone] | 15.9 nM |
